This is an account of results in patent US11230524B2, “Myocyte enhancer factor 2 (MEF2) modulators” (STANDARD LLC, priority 2017, dated 2022).

Molecules are shown by their SMILES.

Holding throughout (type): cell-based
Test [1] deals with neonatal rat ventricular myocytes (NRVMs). As to the kind of experiment: Inhibition of fetal calf serum induced cardiomyocyte hypertrophy in vitro. As to conditions: serum-starved NRVMs, 5% FCS, myocyte size 48 hours after treatment, concentration reducing FCS-induced hypertrophy by 50%; for IC50: Rattus norvegicus, Ventricular myocyte. The method, then:
To evaluate the ability of the test compounds to inhibit cardio myocyte hypertrophy in vitro, serum-starved neonatal rat ventricular myocytes (NRVMs) were exposed to medium with 5% Fetal Calf Serum (FCS), a powerful activator of myoctye growth (hypertrophy) and treated with one of the compounds at doses ranging from 0.2-10 μM or with the vehicle (dimethyl sulfoxide (DMSO)). Control cells received fresh media without serum. The myocyte size was determined 48 hours after treatment. The results in Table 7 show the concentrations of the test compounds required to reduce the FCS-induced hypertrophy in the NRVMs by 50% (IC50 μM).

Test [2] has as its target MEF2D/HDAC4 protein-protein interactions (Homo sapiens (Human), UniProt Q14814). Put plainly: Mammalian two-hybrid assay, inhibition of MEF2D and HDAC4 protein interactions (luciferase reporter in HeLa cells). As to conditions: HeLa cells co-transfected with GAL4-MEF2D, HDAC4-VP16 and Gal4Luc; overnight treatment; luciferase normalized to Renilla. The text has this:
Detection of MEF2D and HDAC4 interactions. In this mammalian two-hybrid assay, HDAC4 and MEF2D proteins were used. […] Human epithelial carcinoma cells (HeLa) were co-transfected with the two DNA constructs (GAL4-MEF2D and HDAC4-VP16) and a reporter plasmid (Gal4Luc). […] MEF2D and HDAC4 protein interactions were detected as a result of the GAL4-MEF2D and HDAC4-VP16 protein complex binding a DNA promoter on the reporter plasmid (Gal4Luc) and driving cellular expression of a luciferase gene. The measured luciferase protein signal was proportional to the amount of MEF2D and HDAC4 protein interactions occurring with the cell.
The HDAC4 fragment lacked the catalytic domain so that the deacetylase activity was excluded from the assay.
Detection of inhibition of MEF2D and HDAC4 interactions. Next, the assay was used to test whether the compounds could disrupt the interactions between MEF2D and HDAC4. After co-expressing the GAL4-MEF2D and HDAC4-VP16 DNA constructs and reporter plasmid, the HeLa cells were treated with a test compound (10 μM) overnight. Cells transfected with the positive control GAL4VP16 fusion construct and reporter plasmid were also treated with the test compound (10 μM) overnight. As another control, DMSO was added (but kept below 0.2% V/V) to cells transfected with the positive GAL4VP16 fusion construct or the GAL4-MEF2D and HDAC4-VP16 DNA constructs. A luciferase assay was performed as described above according to the manufacturer's protocol (Promega). The luciferase response was normalized against the Renilla Luciferase as an internal control.
The relative activity and IC50 calculations. […] The relative activity, I, was the ratio of former to later, i.e. X/Y, expressed in percentile. […] The IC50 was the concentration of the compounds when X/Y equals 50.
A general note: Reporter assays use an easily measured gene product as a stand-in for the process of interest.

Test [3] deals with MEF2D/p300 protein-protein interactions (Homo sapiens (Human), UniProt Q14814). As to the kind of experiment: Mammalian two-hybrid assay, inhibition of MEF2D and P300 protein interactions (luciferase reporter in HeLa cells). As to conditions: HeLa cells co-transfected with GAL4-MEF2D, P300-VP16 and Gal4Luc. The source says: Detection of MEF2D and P300 interactions. The same system that was used in Example 19 is used in here to detect MEF2D and P300 interactions. In this assay, two separate DNA constructs were made with MEF2D fused with the GAL4 DNA binding domain (GAL4-MEF2D) and P300 fused with the viral transactivator VP-16 ([…]). Human epithelial carcinoma cells (HeLa) were co-transfected with the two DNA constructs (GAL4-MEF2D and P300-VP16) and a reporter plasmid (Gal4Luc). […] MEF2D and P300 protein interactions were detected as a result of the GAL4-MEF2D and P300-VP16 protein complex binding a DNA promoter on the reporter plasmid (Gal4Luc) and driving cellular expression of a luciferase gene. The measured luciferase protein signal was proportional to the amount of MEF2D and P300 protein interactions occurring with the cell.
Chain of MEF2D/p300 protein-protein interactions (Q14814 whole entry, species assumed, the tested form may be a part): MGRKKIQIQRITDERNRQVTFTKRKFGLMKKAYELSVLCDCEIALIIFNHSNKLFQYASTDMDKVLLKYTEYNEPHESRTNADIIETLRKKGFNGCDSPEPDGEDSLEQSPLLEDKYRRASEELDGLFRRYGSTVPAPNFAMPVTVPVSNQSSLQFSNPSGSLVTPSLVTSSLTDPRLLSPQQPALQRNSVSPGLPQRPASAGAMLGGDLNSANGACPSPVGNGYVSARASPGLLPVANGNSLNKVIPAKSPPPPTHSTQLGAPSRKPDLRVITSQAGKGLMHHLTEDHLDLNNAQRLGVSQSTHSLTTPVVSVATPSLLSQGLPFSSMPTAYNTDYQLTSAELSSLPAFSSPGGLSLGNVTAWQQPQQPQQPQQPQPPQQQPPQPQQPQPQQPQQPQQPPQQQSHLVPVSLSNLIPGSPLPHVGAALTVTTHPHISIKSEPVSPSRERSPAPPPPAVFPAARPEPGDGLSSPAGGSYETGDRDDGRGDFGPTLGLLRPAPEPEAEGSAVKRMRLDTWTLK
The relative activity and IC50 calculations. The IC50 concentrations were calculated in the same manner as described for Example 19.

As usually defined, the IC50 is the concentration that inhibits the measured activity by half. A higher IC50 goes with a need for much substance.

Chain of MEF2D/HDAC4 protein-protein interactions (Q14814 whole entry, species assumed, the tested form may be a part): as above

In the case of `Nc1ccccc1NC(=O)/C=C/c1cccc(CNc2nc(C(F)(F)F)co2)c1` [ST63, (E)-N-(2-aminophenyl)-3-(3-((4-(trifluoromethyl)oxazol-2-ylamino)methyl)phenyl)acrylamide], the IC50 in test [1] amounted to 4.2 µM; in test [2] it was 1.85 µM; in test [3], 2.73 µM.

Turning to `CCOC(=O)N[C@@H](CCCCC(=O)Nc1ccccc1N)C(=O)Nc1cccc(Br)c1` [ST104, (S)-ethyl (7-((2-aminophenyl)amino)-1-((3-bromophenyl)amino)-1,7-dioxoheptan-2-yl)carbamate], the IC50 in test [1] is 2.89 µM; in test [2], 0.47 µM; in test [3] it was 0.38 µM.

Turning to `Nc1ccccc1NC(=O)/C=C/c1cccc(CNc2cccc(OC3CC3)c2)c1` [ST7, (E)-N-(2-aminophenyl)-3-(3-(((3-cyclopropoxyphenyl)amino)methyl)phenyl)acrylamide], the IC50 is 0.46 µM in test [1], 1.6 µM in test [2] and 1.6 µM in test [3].

Regarding `COC(=O)NC(CCCCC(=O)Nc1ccccc1N)C(=O)Nc1nc(-c2ccncc2)cs1` (stereo not shown) [ST116, methyl (7-((2-aminophenyl)amino)-1,7-dioxo-1-((4-(pyridin-4-yl)thiazol-2-yl)amino)heptan-2-yl)carbamate], the IC50 in test [1] was 4400 µM; in test [2], 0.57 µM; in test [3] it was 0.27 µM.

For the compound `Nc1ccccc1NC(=O)/C=C/c1cccc(CNc2ccc3ncccc3c2)c1` [ST55, (E)-N-(2-aminophenyl)-3-(3-((quinolin-6-ylamino)methyl)phenyl)acrylamide], the IC50 in test [1] was determined as 9.26 µM; in test [2] it was 4.53 µM; in test [3], 0.51 µM.

`COC(=O)NC(CCCCC(=O)Nc1ccccc1N)C(=O)Nc1cccc2cccnc12` (stereo not shown) [ST119, methyl (7-((2-aminophenyl)amino)-1,7-dioxo-1-(quinolin-8-ylamino)heptan-2-yl)carbamate]: the figures for the 50% inhibitory concentration (IC50) in test [1], in test [2] and in test [3] were 0.079 µM, 0.39 µM and 0.14 µM, respectively.

Consider `CCOc1cccc(NCc2cccc(/C=C/C(=O)Nc3ccccc3N)c2)c1` [ST4, (E)-N-(2-aminophenyl)-3-(3-(((3-ethoxyphenyl)amino)methyl)phenyl)acrylamide], for which the IC50 in test [1] is 4.37 µM; in test [2], 1.07 µM; in test [3], 1.1 µM.

For the compound `Nc1ccccc1NC(=O)CCCCC(NC(=O)c1ccccc1)C(=O)Nc1cccc(Br)c1` (stereo not shown) [ST92, N^7-(2-aminophenyl)-2-benzamido-N^1-(3-bromophenyl)heptanediamide], the results for the IC50 in test [2] and in test [3] were 0.81 µM and 0.47 µM, respectively.

Consider `Cc1[nH]c2ccccc2c1CCNCc1cccc(/C=C/C(=O)Nc2ccccc2N)c1` [ST49, (E)-N-(2-aminophenyl)-3-(3-(((2-(2-methyl-1H-indol-3-yl)ethyl)amino)methyl)phenyl)acrylamide], for which the IC50 in test [1] was determined as 1.23 µM.

Turning to `CCOC(=O)NC(CCCCC(=O)NCc1cncc(OCC)c1)C(=O)NCc1cncc(OCC)c1` (stereo not shown) [ST129], in test [1], the “IC50, inhibition of cardiomyocyte hypertrophy in vitro” value was “no inhibition”. Moreover, the 50% inhibitory concentration (IC50) in test [2] and in test [3] was 20 µM in each case.

Turning to `Nc1ccccc1NC(=O)/C=C/c1cccc(CNCc2cccc(OC3CCC3)c2)c1` [ST14], the IC50 in test [1] came to 0.15 µM; in test [2], 1.52 µM; in test [3] it was 0.94 µM.

For `Nc1ccccc1NC(=O)/C=C/c1cccc(CNc2cccc3cccnc23)c1` [ST56], the midpoint of inhibition in test [2], the IC50, lay at 5.22 µM.

Regarding `Nc1ccccc1NC(=O)/C=C/c1cccc(CNc2nc(-c3ccc(F)cc3)cs2)c1` [ST52], the IC50 in test [2] was > 20 µM.

Regarding `CCCC(=O)NC(CCCCC(=O)NO)C(=O)Nc1cccc(Br)c1` (stereo not shown) [ST110], the IC50 in test [2] came out at 0.42 µM.

For the compound `CCOC(=O)N[C@@H](CCCCC(=O)NO)C(=O)Nc1cccc(Br)c1` [ST107], in test [2], the IC50 came out at 0.44 µM.

Take `CCOC(=O)NC(CCCCC(=O)Nc1ccccc1N)C(=O)Nc1cccnc1` (stereo not shown) [ST123]: the IC50 in test [2] was found to be 2 µM.

Compound `CCCCNC(CCCCC(=O)Nc1ccccc1N)C(=O)Nc1cccc(Br)c1` (stereo not shown) [ST88] yielded an IC50 in test [2] of 7.32 µM.

As to `CCOC(=O)NC(CCCCC(=O)Nc1ccccc1N)C(=O)Nc1cccc(SC)c1` (stereo not shown) [ST82], the IC50 in test [2] came to 0.5 µM.

Turning to `CCC(=O)NC(CCCCC(=O)Nc1ccccc1N)C(=O)Nc1cccc(Br)c1` (stereo not shown) [ST89], the IC50 was found to be 0.77 µM in test [2] and 0.071 µM in test [3].

`CN(C)c1cccc(NCc2cccc(/C=C/C(=O)NO)c2)c1` [ST33] displayed a concentration for half-maximal inhibition (IC50) in test [2] of 0.37 µM.

Turning to `CCCCc1cccc(NCc2cccc(/C=C/C(=O)NO)c2)c1` [ST34], in test [2], the midpoint of inhibition, the IC50, lay at 2.03 µM.

With `Nc1ccccc1NC(=O)CCCC[C@H](NC(=O)CC1CC1)C(=O)Nc1cccc(Br)c1` [ST98], the IC50 in test [2] came to 0.32 µM.

Regarding `Cc1nnc(NCc2cccc(/C=C/C(=O)Nc3ccccc3N)c2)o1` [ST65], the IC50 in test [2] turned out to be 5.37 µM.

`Cc1nnc(NCc2cccc(/C=C/C(=O)NO)c2)s1` [ST73] registered an IC50 in test [2] of 1.15 µM.

Take `Nc1ccccc1NC(=O)/C=C/c1cccc(C(=O)Nc2nc(-c3ccncc3)cs2)c1` [ST57]: in test [2], the IC50 is > 20 µM.

Compound `CCOC(=O)NC(CCCCC(=O)Nc1ccccc1N)C(=O)Nc1nc(-c2ccncc2)cs1` (stereo not shown) [ST115] gave an IC50 in test [2] of 0.54 µM.

For `O=C(/C=C/c1cccc(C(=O)Nc2nc(-c3ccncc3)cs2)c1)NO` [ST69], the midpoint of inhibition in test [2], the IC50, lay at 0.98 µM.

`CCOC(=O)NC(CCCCC(=O)Nc1ccccc1N)C(=O)Nc1cccc2cccnc12` (stereo not shown) [ST117] had an IC50 in test [2] of 0.94 µM.

As to `CCOC(=O)NC(CCCCC(=O)Nc1ccccc1N)C(=O)Nc1cccc(SC(F)(F)F)c1` (stereo not shown) [ST84], in test [2], half-maximal inhibition (IC50) required 0.93 µM.

In turn, `Nc1ccccc1NC(=O)CCCCC(NC(=O)c1ccccn1)C(=O)Nc1cccnc1` (stereo not shown) [ST122] returned an IC50 in test [2] of 1.62 µM.

The compound `CC(C)OC(=O)N[C@@H](CCCCC(=O)Nc1ccccc1N)C(=O)Nc1cccc(Br)c1` [ST97] gave an IC50 in test [2] of 0.45 µM.

Regarding `Nc1ccccc1NC(=O)CCCCC(N)C(=O)Nc1cccc(Br)c1` (stereo not shown) [ST87], the IC50 in test [2] was determined as 3.06 µM.

On to `COC(=O)NC(CCCCC(=O)Nc1ccccc1N)C(=O)Nc1cccc(SC)c1` (stereo not shown) [ST85, methyl (7-((2-aminophenyl)amino)-1-((3-(methylthio)phenyl)amino)-1,7-dioxoheptan-2-yl)carbamate], for which the IC50 in test [2] was 0.47 µM; in test [3] it was < 0.15 µM.

On to `COc1ccc(-c2csc(NCc3cccc(/C=C/C(=O)Nc4ccccc4N)c3)n2)cc1` [ST51], for which, in test [2], the IC50 was > 20 µM.

`CCOC(=O)NC(CCCCC(=O)Nc1ccccc1N)C(=O)Nc1cncc(OC)c1` (stereo not shown) [ST124]: the IC50 in test [2] was found to be 1.53 µM.

`CC(C)Oc1cccc(NCc2cccc(/C=C/C(=O)Nc3ccccc3N)c2)c1` [ST5] gave an IC50 in test [2] of 191 µM.

Take `Nc1ccccc1NC(=O)/C=C/c1cccc(CNc2ccc3ccccc3c2)c1` [ST54, (E)-N-(2-aminophenyl)-3-(3-((naphthalen-2-ylamino)methyl)phenyl) Acrylamide]: the IC50 in test [1] worked out at 1.16 µM.

On to `CC(C)(C)OC(=O)N[C@@H](CCCCC(=O)Nc1ccccc1N)C(=O)Nc1cccc(Br)c1` [ST106], for which 1.11 µM corresponded to half-maximal inhibition in test [2] (IC50).

With `O=C(/C=C/c1cccc(CNc2nc(C(F)(F)F)co2)c1)NO` [ST79], in test [2], the IC50 stood at 0.28 µM.

The compound `Nc1ccccc1NC(=O)/C=C/c1cccc(CNc2nnc(C(F)(F)F)s2)c1` [ST61] yielded an IC50 in test [2] of 8.03 µM.

Turning to `Nc1ccccc1NC(=O)/C=C/c1ccc(F)c(CNc2ccccc2)c1` [ST11], the IC50 in test [2] amounted to 18 µM.

In test [2], `O=C(/C=C/c1cccc(CNc2cccc(C3COC3)c2)c1)NO` [ST43] had an IC50 of 0.27 µM.

In test [2], `CCOC(=O)N[C@H](CCCCC(=O)NO)C(=O)Nc1cccc(Br)c1` [ST112] came in with a 50% inhibitory concentration (IC50) of 0.61 µM.
